Two molecules from publication PMC5428521, “Identification of a Novel, Small Molecule Partial Agonist for the Cyclic AMP Sensor, EPAC1” (Scientific Reports, 2017) can be followed below.

One assay concerns the target T1, EPAC1-CNB (Homo sapiens, UniProt O95398).
T1 construct: EPAC1-CNB (amino acids 169–318 of EPAC1); made in house; host or cells: BL-21 Escherichia coli (pGEX-6P-1)
T1 sequence (O95398 169-318 isoform O95398-3): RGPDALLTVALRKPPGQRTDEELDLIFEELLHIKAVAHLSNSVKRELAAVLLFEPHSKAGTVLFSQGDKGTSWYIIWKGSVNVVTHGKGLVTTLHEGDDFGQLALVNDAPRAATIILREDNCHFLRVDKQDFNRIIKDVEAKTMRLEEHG
Kind of assay: 8-NBD-cAMP competition assay with EPAC1-CNB. The format is binding. The note with it: for IC50: 7-point dose response, 75 µM top concentration, 0.75% DMSO. How it is done:
Optimisation of assay conditions was performed in 96 well black assay plates (Greiner). Comparison of reference molecules, dose response curves and pilot screen were done in black, low volume 384 assay plates (Greiner). Liquids were dispensed using a Biomek Fx laboratory automation workstation with a 96-multichannel pipetting head (Beckman Coulter) for optimisation, whereas the Echo® Liquid Handler (Labcyte) and Wellmate automated dispenser (Thermo Matrix) were employed for pilot screens (see library screening).
This was done using the optimised assay conditions developed during the study. Library compounds were transferred from pre-prepared, 1000x stock Echo® 384 LDV source plates (Labcyte) into black, low volume 384 assay plates (Greiner) at 25 nl volumes, using an Echo® Liquid Handler (Labcyte), maintaining 0.1–1% DMSO throughout. EPAC1-CNB (0.8 µM) was immediately added using a Wellmate automated dispenser (Thermo Matrix). Plates were centrifuged at 800 rpm, 10 s, and then incubated for 30 minutes, RT, to promote compound-protein complex formation. […] The assay was incubated at room temperature and the fluorescence intensity at 480/535 nm (ex/em) was measured after 4–15 hours using the Envision plate reader.

Assay [1] has as its target T2, EPAC1 (amino acids 149–881) (Homo sapiens, UniProt O95398).
T2 construct: recombinant EPAC1 (amino acids 149–881); made in house; host or cells: bacteria
T2 sequence (O95398 149-881 isoform O95398-3): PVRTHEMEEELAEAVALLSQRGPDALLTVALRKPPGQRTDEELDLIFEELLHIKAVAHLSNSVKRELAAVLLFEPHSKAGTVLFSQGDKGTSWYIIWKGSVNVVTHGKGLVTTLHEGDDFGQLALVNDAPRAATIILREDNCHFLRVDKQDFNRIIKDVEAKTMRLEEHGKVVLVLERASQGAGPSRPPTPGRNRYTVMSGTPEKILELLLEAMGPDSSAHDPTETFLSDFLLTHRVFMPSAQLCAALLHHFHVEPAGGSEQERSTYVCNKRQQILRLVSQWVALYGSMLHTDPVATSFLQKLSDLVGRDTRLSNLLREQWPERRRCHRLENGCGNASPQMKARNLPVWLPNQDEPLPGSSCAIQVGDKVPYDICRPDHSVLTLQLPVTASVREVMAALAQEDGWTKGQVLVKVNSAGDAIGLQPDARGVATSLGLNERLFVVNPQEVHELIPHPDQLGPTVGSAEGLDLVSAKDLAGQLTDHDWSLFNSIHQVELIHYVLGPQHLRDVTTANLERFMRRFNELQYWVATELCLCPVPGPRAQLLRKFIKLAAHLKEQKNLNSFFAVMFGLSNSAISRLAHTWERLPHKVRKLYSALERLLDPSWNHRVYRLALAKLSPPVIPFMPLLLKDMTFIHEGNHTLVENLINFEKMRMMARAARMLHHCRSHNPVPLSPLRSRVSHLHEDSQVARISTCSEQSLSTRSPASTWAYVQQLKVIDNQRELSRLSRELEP
Kind of assay: In vitro GEF activity assay (MANT-GDP dissociation from Rap1), EPAC1. The format is biochemical. Particulars: for AC50: AC50, GEF Activation (no cAMP), from kobs vs concentration. How it is done:
For this, we used the well-characterised EPAC GEF activity assay. The assay is based on the EPAC-stimulated dissociation of fluorescent MANT-GDP from recombinant Rap1 in the presence of excess non-fluorescent nucleotide.
The data are fitted as single exponential decay with off-set (red lines) to obtain the rate constants kobs, as shown in (b).
EPAC1 and EPAC2 in vitro GEF activities were calculated as previously described. Briefly, recombinant EPAC1 (amino acids 149–881) or EPAC2 (amino acids 280–993) were incubated at 100 nM with recombinant Rap1 (200 nM) preloaded with the fluorescent GDP analogue 2′/3′-O-(N-Methylanthraniloyl)guanosine 5-diphosphate (MANT-GDP) in the presence of 20 μM GDP and then the fluorescence intensity was measured at 360/450 nm (ex/em) over time. […] AC50 or IC50 values were determined from the plots of kobs against the concentration of the agonist and antagonist, respectively Table 1.

Values joined by “and” are separate entries in the source; they are usually repeats but may differ in a detail not shown here. Equal values may be shown once. Read-outs that look alike come from different tables or passages of the source.

A word on the IC50: it is the concentration that inhibits the measured activity by half. As a reminder, the AC50 is the midpoint of the concentration-response curve, whichever way the signal moves. Read a high AC50 as weaker potency. As to `O=C(COc1ccc2ccccc2c1)NS(=O)(=O)c1ccccc1` [I178, N-(benzenesulfonyl)-2-(naphthalen-2-yloxy)acetamide], the IC50 at EPAC1-CNB (read-out: IC50, 8-NBD-cAMP binding assay) was roughly 40 µM; in assay [1], roughly 500 µM. The AC50 in assay [1] (absence of cAMP) was 200 µM and ~200 µM.

By Kd is commonly meant the constant that tells how readily two partners part at equilibrium. Lower therefore signals a tighter complex. For the molecule `Cc1ccc(S(=O)(=O)NC(=O)COc2ccc3ccccc3c2)c(C)c1` [I942, N-(2,4-dimethylbenzenesulfonyl)-2-(naphthalen-2-yloxy)acetamide], on EPAC1-CNB, the Kd was roughly 40 µM. The IC50 at EPAC1-CNB (IC50, 8-NBD-cAMP binding assay) was roughly 35 µM. Also, on EPAC1-CNB (competition assay, isolated CNB domain), the “affinity, fold lower than that of cAMP” value is reported as “about 10 fold”. In assay [1], this molecule gave an IC50 of roughly 300 µM. For the same molecule, in assay [1] (absence of cAMP), the AC50 was 50 µM and ~50 µM; the “maximal induced activity, fold lower than that of cAMP” value is on record as “around 10 fold”.
